Literature values, collected in patent US11554095B1, “Mitomycin-C bladder instillation syringe kit” (Edge Pharma, LLC, priority 2019, dated 2023).

Assays:
[1] = urine

In the case of `CO[C@@]12[C@H](COC(N)=O)C3=C(C(=O)C(C)=C(N)C3=O)N1C[C@@H]1N[C@@H]12` [MMC, Mitomycin-C], the “decrease in MMC concentrations” value ([1]; pH 5, after 2 hours) is given as 44%, the “loss of MMC” value ([1]; pH 7, after 2 hours) is given as “less than 4%” and the “pH of solution in water” value (5 mg/mL solution in water) is given as 6.0-7.5. The “pH of saturated solution” value (saturated solution) was 5.0-9.0.
